Measured values from PubChem BioAssay (NCI).
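Protocol summary: plate cells (96-well), add compound at 5 concentrations, incubate 48 h, interpolate endpoints linearly. Definition used: TGI = concentration required for complete inhibition of growth.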

Assays:
Assay in all cases: growth of human tumour cells (NCI), 48 h
A498 renal = system: A498 renal
A549 NSCLC = system: A549 NSCLC
ACHN renal = system: ACHN renal
BT-549 breast = system: BT-549 breast
CAKI-1 renal = system: CAKI-1 renal
CCRF-CEM leukemia = system: CCRF-CEM leukemia
DU-145 prostate = system: DU-145 prostate
EKVX NSCLC = system: EKVX NSCLC
HCT-15 colon = system: HCT-15 colon
HL-60(TB) leukemia = system: HL-60(TB) leukemia
HOP-62 NSCLC = system: HOP-62 NSCLC
HOP-92 NSCLC = system: HOP-92 NSCLC
HT29 colon = system: HT29 colon
IGROV1 ovarian = system: IGROV1 ovarian
K-562 leukemia = system: K-562 leukemia
KM12 colon = system: KM12 colon
LOX IMVI melanoma = system: LOX IMVI melanoma
M14 melanoma = system: M14 melanoma
MALME-3M melanoma = system: MALME-3M melanoma
MDA-MB-231 breast = system: MDA-MB-231 breast
MDA-MB-435 = system: MDA-MB-435
MDA-N = system: MDA-N
MOLT-4 leukemia = system: MOLT-4 leukemia
NCI-H226 lung = system: NCI-H226 lung
NCI-H23 lung = system: NCI-H23 lung
NCI-H460 lung = system: NCI-H460 lung
NCI-H522 lung = system: NCI-H522 lung
NCI/ADR-RES ovarian = system: NCI/ADR-RES ovarian
OVCAR-3 ovarian = system: OVCAR-3 ovarian
OVCAR-4 ovarian = system: OVCAR-4 ovarian
OVCAR-5 ovarian = system: OVCAR-5 ovarian
OVCAR-8 ovarian = system: OVCAR-8 ovarian
PC-3 prostate = system: PC-3 prostate
RPMI-8226 leukemia = system: RPMI-8226 leukemia
RXF 393 renal = system: RXF 393 renal
SF-268 CNS = system: SF-268 CNS
SF-295 CNS = system: SF-295 CNS
SK-MEL-2 melanoma = system: SK-MEL-2 melanoma
SK-MEL-28 melanoma = system: SK-MEL-28 melanoma
SK-MEL-5 melanoma = system: SK-MEL-5 melanoma
SN12C renal = system: SN12C renal
SNB-19 CNS = system: SNB-19 CNS
SNB-75 CNS = system: SNB-75 CNS
SR leukemia = system: SR leukemia
SW-620 colon = system: SW-620 colon
T-47D breast = system: T-47D breast
TK-10 renal = system: TK-10 renal
U251 CNS = system: U251 CNS
UACC-257 melanoma = system: UACC-257 melanoma
UACC-62 melanoma = system: UACC-62 melanoma
UO-31 renal = system: UO-31 renal
786-0 renal = system: 786-0 renal
COLO 205 colon = system: COLO 205 colon
HCC-2998 colon = system: HCC-2998 colon
HCT-116 colon = system: HCT-116 colon
HS 578T breast = system: HS 578T breast
MCF7 breast = system: MCF7 breast
SF-539 CNS = system: SF-539 CNS
SK-OV-3 ovarian = system: SK-OV-3 ovarian

c1ccc2c(c1)c1ccccc1n2Cn1c2ccccc2c2ccccc21
TGI (A498 renal): > 100 µM
TGI (A549 NSCLC): > 100 µM
TGI (ACHN renal): > 100 µM
TGI (BT-549 breast): > 100 µM
TGI (CAKI-1 renal): > 100 µM
TGI (CCRF-CEM leukemia): > 100 µM
TGI (DU-145 prostate): > 100 µM
TGI (EKVX NSCLC): > 100 µM
TGI (HCT-15 colon): > 100 µM
TGI (HL-60(TB) leukemia): > 100 µM
TGI (HOP-62 NSCLC): > 100 µM
TGI (HOP-92 NSCLC): > 100 µM
TGI (HT29 colon): > 100 µM
TGI (IGROV1 ovarian): > 100 µM
TGI (K-562 leukemia): > 100 µM
TGI (KM12 colon): > 100 µM
TGI (LOX IMVI melanoma): > 100 µM
TGI (M14 melanoma): > 100 µM
TGI (MALME-3M melanoma): > 100 µM
TGI (MDA-MB-231 breast): > 100 µM
TGI (MDA-MB-435): > 100 µM
TGI (MDA-N): > 100 µM
TGI (MOLT-4 leukemia): > 100 µM
TGI (NCI-H226 lung): > 100 µM
TGI (NCI-H23 lung): > 100 µM
TGI (NCI-H460 lung): > 100 µM
TGI (NCI-H522 lung): > 100 µM
TGI (NCI/ADR-RES ovarian): > 100 µM
TGI (OVCAR-3 ovarian): > 100 µM
TGI (OVCAR-4 ovarian): > 100 µM
TGI (OVCAR-5 ovarian): > 100 µM
TGI (OVCAR-8 ovarian): > 100 µM
TGI (PC-3 prostate): > 100 µM
TGI (RPMI-8226 leukemia): > 100 µM
TGI (RXF 393 renal): > 100 µM
TGI (SF-268 CNS): > 100 µM
TGI (SF-295 CNS): > 100 µM
TGI (SK-MEL-2 melanoma): > 100 µM
TGI (SK-MEL-28 melanoma): > 100 µM
TGI (SK-MEL-5 melanoma): > 100 µM
TGI (SN12C renal): > 100 µM
TGI (SNB-19 CNS): > 100 µM
TGI (SNB-75 CNS): > 100 µM
TGI (SR leukemia): > 100 µM
TGI (SW-620 colon): > 100 µM
TGI (T-47D breast): > 100 µM
TGI (TK-10 renal): > 100 µM
TGI (U251 CNS): > 100 µM
TGI (UACC-257 melanoma): > 100 µM
TGI (UACC-62 melanoma): > 100 µM
TGI (UO-31 renal): > 100 µM

CC1(C)OCC(C2OC3OC(C)(C)OC3C2c2ccccc2)O1 (configuration not stated)
TGI (786-0 renal): > 100 µM
TGI (A549 NSCLC): > 100 µM
TGI (ACHN renal): > 100 µM
TGI (CCRF-CEM leukemia): > 100 µM
TGI (COLO 205 colon): 54 µM
TGI (DU-145 prostate): > 100 µM
TGI (EKVX NSCLC): > 100 µM
TGI (HCC-2998 colon): > 100 µM
TGI (HCT-116 colon): > 100 µM
TGI (HCT-15 colon): > 100 µM
TGI (HL-60(TB) leukemia): 50 µM
TGI (HOP-62 NSCLC): > 100 µM
TGI (HOP-92 NSCLC): 79 µM
TGI (HS 578T breast): 64.4 µM
TGI (HT29 colon): > 100 µM
TGI (IGROV1 ovarian): > 100 µM
TGI (K-562 leukemia): > 100 µM
TGI (KM12 colon): > 100 µM
TGI (LOX IMVI melanoma): > 100 µM
TGI (M14 melanoma): 93.9 µM
TGI (MALME-3M melanoma): > 100 µM
TGI (MCF7 breast): > 100 µM
TGI (MDA-MB-231 breast): > 100 µM
TGI (MDA-MB-435): 93.5 µM
TGI (MDA-N): > 100 µM
TGI (MOLT-4 leukemia): > 100 µM
TGI (NCI-H226 lung): 93.6 µM
TGI (NCI-H23 lung): 97.2 µM
TGI (NCI-H460 lung): > 100 µM
TGI (NCI-H522 lung): > 100 µM
TGI (NCI/ADR-RES ovarian): > 100 µM
TGI (OVCAR-3 ovarian): 91.7 µM
TGI (OVCAR-4 ovarian): > 100 µM
TGI (OVCAR-5 ovarian): > 100 µM
TGI (OVCAR-8 ovarian): > 100 µM
TGI (PC-3 prostate): 98.7 µM
TGI (RPMI-8226 leukemia): > 100 µM
TGI (RXF 393 renal): > 100 µM
TGI (SF-268 CNS): > 100 µM
TGI (SF-295 CNS): > 100 µM
TGI (SF-539 CNS): > 100 µM
TGI (SK-MEL-2 melanoma): 64.8 µM
TGI (SK-MEL-28 melanoma): > 100 µM
TGI (SK-MEL-5 melanoma): 33.2 µM
TGI (SK-OV-3 ovarian): > 100 µM
TGI (SN12C renal): > 100 µM
TGI (SNB-19 CNS): > 100 µM
TGI (SNB-75 CNS): > 100 µM
TGI (SR leukemia): > 100 µM
TGI (SW-620 colon): > 100 µM
TGI (T-47D breast): > 100 µM
TGI (TK-10 renal): > 100 µM
TGI (U251 CNS): > 100 µM
TGI (UACC-257 melanoma): > 100 µM
TGI (UACC-62 melanoma): 87.1 µM
TGI (UO-31 renal): > 100 µM
